Experimental data from publication PMC8433807, “Scaffold Repurposing of In-House Small Molecule Candidates Leads to Discovery of First-in-Class CDK-1/HER-2 Dual Inhibitors: In Vitro and In Silico Screening” (Molecules, 2021).

What was measured:
CDK-1/cyclin B = molecular target: T1, CDK-1/cyclin B (Homo sapiens, UniProt P06493); test: Kinase HotSpot activity assay, single dose in duplicate; assay type: biochemical; settings: 10 µM; 10 μM compound; 10 μM ATP; value is residual kinase activity, not inhibition
T1 construct: gene CDK1; Reaction Biology Corp. Kinase HotSpot service; with G2/mitotic-specific cyclin-B1

HER-2 = molecular target: T2, HER-2 (Homo sapiens, UniProt P04626); test: as above; assay type: biochemical; settings: 10 µM; 10 μM compound; 10 μM ATP; value is residual kinase activity, not inhibition
T2 construct: gene ERBB2; Reaction Biology Corp. Kinase HotSpot service
T2 sequence (P04626 676-1255 limits assumed): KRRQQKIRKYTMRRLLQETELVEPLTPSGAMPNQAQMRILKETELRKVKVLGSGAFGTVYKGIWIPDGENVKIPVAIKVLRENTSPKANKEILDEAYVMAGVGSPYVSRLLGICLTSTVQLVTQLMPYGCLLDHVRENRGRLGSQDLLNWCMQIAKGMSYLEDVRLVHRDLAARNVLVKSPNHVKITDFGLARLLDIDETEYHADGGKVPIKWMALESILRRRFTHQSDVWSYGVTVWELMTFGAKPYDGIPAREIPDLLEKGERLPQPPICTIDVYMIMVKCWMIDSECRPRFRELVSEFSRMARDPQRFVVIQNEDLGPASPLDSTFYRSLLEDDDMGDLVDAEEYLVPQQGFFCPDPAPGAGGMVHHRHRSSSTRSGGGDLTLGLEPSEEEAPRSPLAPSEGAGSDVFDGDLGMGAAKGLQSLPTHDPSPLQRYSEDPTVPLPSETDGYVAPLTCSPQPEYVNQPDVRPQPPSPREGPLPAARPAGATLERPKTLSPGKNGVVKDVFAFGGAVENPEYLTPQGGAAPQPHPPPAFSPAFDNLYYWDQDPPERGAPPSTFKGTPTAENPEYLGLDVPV

T1 sequence (P06493 whole entry): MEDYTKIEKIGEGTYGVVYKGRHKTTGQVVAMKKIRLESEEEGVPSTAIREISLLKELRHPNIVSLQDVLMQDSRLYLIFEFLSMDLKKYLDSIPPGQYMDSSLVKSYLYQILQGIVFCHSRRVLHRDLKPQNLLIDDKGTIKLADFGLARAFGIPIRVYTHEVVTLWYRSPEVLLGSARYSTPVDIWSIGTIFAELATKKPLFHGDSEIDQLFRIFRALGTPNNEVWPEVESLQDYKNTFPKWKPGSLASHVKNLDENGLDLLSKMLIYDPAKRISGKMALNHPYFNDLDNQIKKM
T1 sequence (P14635 whole entry partner): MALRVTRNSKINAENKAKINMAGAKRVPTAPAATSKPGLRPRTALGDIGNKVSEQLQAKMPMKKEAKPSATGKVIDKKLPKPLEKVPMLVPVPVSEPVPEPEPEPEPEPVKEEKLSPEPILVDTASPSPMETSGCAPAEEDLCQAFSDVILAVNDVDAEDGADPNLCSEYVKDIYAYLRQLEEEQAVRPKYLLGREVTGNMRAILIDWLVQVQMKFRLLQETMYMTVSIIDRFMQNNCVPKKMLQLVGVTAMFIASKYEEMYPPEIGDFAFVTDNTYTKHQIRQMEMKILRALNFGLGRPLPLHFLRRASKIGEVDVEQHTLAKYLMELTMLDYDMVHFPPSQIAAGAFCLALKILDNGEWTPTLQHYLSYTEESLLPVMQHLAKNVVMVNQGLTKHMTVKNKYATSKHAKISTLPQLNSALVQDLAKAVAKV

% Activity / CDK-1/cyclin B (CDK-1/cyclin B): 51%
% Activity / HER-2 (HER-2): 52%
Compound: O=C(Nc1ccc2c(ccn2C(=O)c2cccc(F)c2)c1)c1ccnnc1 [15l]
